Assay results as given in ChEMBL document CHEMBL5143665, “Discovery and preclinical evaluations of WX-0593, a novel ALK inhibitor targeting crizotinib-resistant mutations” (Bioorg Med Chem Lett, 2022).

How the values were obtained:
[1] = Oral bioavailability in mouse at 10 mg/kg; type: ADME, organism-based; conditions: in vivo
[2] = AUC (0 to last) in mouse at 10 mg/kg, po; type: ADME, organism-based; parameters: time 0 - last, dose 10 mg/kg, route po; conditions: in vivo
[3] = Volume of distribution at steady state in mouse at 1 mg/kg, iv; type: ADME, organism-based; conditions: in vivo, read-out: Vdss
[4] = Cmax in mouse at 10 mg/kg, po; type: ADME, organism-based; parameters: dose 10 mg/kg, route po; conditions: in vivo
[5] = Clearance in mouse at 1 mg/kg, iv; type: ADME, organism-based; conditions: in vivo
[6] = Half-life in mouse at 1 mg/kg, iv; type: ADME, organism-based; conditions: in vivo
KARPAS-299 = test: cells; conditions: Homo sapiens
Description: Antiproliferative activity against human KARPAS-299 cells harbouring wild type ALK assessed as reduction in cell viability by Celltitre-Glo luminescent assay

BaF3 [7] = test: cells; conditions: Mus musculus
Description: Antiproliferative activity against mouse BaF3 cells harbouring ALK wild type assessed as reduction in cell viability by Celltitre-Glo luminescent assay

BaF3 [8] = test: cells; conditions: Mus musculus; remark: listed apart in the source
Description: Antiproliferative activity against mouse BaF3 cells harbouring ALK L1196M mutant assessed as reduction in cell viability by Celltitre-Glo luminescent assay

BaF3 [9] = test: cells; conditions: Mus musculus; remark: listed apart in the source
Description: Antiproliferative activity against mouse BaF3 cells harbouring ALK C1156Y mutant assessed as reduction in cell viability by Celltitre-Glo luminescent assay

bioavailability [1] [%]	AUC(0-t) [2] [ng·h/mL]	Vd [3] [L/kg]	Cmax [4] [ng/mL]	clearance [5] [mL/min/kg]	half-life [6] [h]	IC50 (KARPAS-299) [nM]	IC50 (BaF3 [7]) [nM]	IC50 (BaF3 [8]) [nM]	IC50 (BaF3 [9]) [nM]	SMILES
5.2	219	1.7	113	49	1.5	60				COc1cc(N2CCC3(CC2)CNC3)ccc1Nc1ncc(Cl)c(Nc2ccccc2P(C)(C)=O)n1
						15	24	39	36	CN1CCC2(CC1)CCN(c1ccc(Nc3ncc(Cl)c(Nc4ccccc4P(C)(C)=O)n3)c(OC(F)F)c1)CC2
